Laboratory results reported in patent US20060069132A1, “Azolecarboxamide herbicides” (priority 2004, published 2006).

What was measured:
[1] = system: soybean; experiment: Test C pre-/postemergence herbicide test; assay type: in vivo, Glycine max; conditions: for Plant response rating, Soybean / Plant response rating (0 = no effect, 100 = complete control), Soybean: preemergence; for Soybean plant response rating: Preemergence, scale 0 to 100, 0 no effect, 100 complete control
Description: (§1) Seeds of plant species selected from bermudagrass (Cynodon dactylon (L.) Pers.), Surinam grass (Urochloa decumbens (Staph) R. D. Webster, previously named Brachiaria decumbens Stapf), cocklebur (Xanthium strumarium L.), corn (Zea mays L.), large crabgrass (Digitaria sanguinalis (L.) Scop.), woolly cupgrass (Eriochloa villosa (Thunb.) Kunth), giant foxtail (Setaria faberi Herrm.), goosegrass (Eleusine indica (L.) Gaertn.), johnsongrass (Sorghum halepense (L.) Pers.), kochia (Kochia scoparia (L.) Schrad.), lambsquarters (Chenopodium album L.), morningglory (Ipomoea coccinea L.), eastern black nightshade (Solanum ptycanthum Dunal), yellow nutsedge (Cyperus esculentus L.), pigweed (Amaranthus retroflexus L.), common ragweed (Ambrosia elatior L.), soybean (Glycine max (L.) Merr.), common (oilseed) sunflower (Helianthus annuus L.) and velvetleaf (Abutilon theophrasti Medik.) were planted and treated preemergence with test chemicals formulated in a non-phytotoxic solvent mixture which included a surfactant.
(§2) At the same time, plants selected from these crop and weed species and also winter barley (Hordeum vulgare L.), blackgrass (Alopecurus myosuroides Huds.), canarygrass (Phalaris minor Retz.), chickweed (Stellaria media (L.) Vill.), downy bromegrass (Bromus tectorum L.), green foxtail (Setaria viridis (L.) Beauv.), Italian ryegrass (Lolium multiflorum Lam.), wheat (Triticum aestivum L.), wild oat (Avenafatua L.) and windgrass (Apera spica-venti (L.) Beauv.) were treated with postemergence applications of some of the test chemicals formulated in the same manner. Plants ranged in height from 2 to 18 cm (1- to 4-leaf stage) for postemergence treatments. Plant species in the flooded paddy test consisted of rice (Oryza sativa), smallflower umbrella sedge (Cyperus difformis L.), ducksalad (Heteranthera limosa (Sw.) Willd.) and barnyardgrass (Echinochloa crus-galli (L.) Beauv.) grown to the 2-leaf stage for testing. Treated plants and controls were maintained in a greenhouse for 12 to 14 days, after which time all species were compared to controls and visually evaluated. Plant response ratings, summarized in Table C, are based on a scale of 0 to 100 where 0 is no effect and 100 is complete control. A dash (-) response means no test result.

[2] = system: morningglory; experiment: Test A pre-/postemergence herbicide test; assay type: in vivo, Ipomoea spp.
Outline: (§3)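 Pre: seeded sandy loam, directed soil spray, compound in non-phytotoxic solvent + surfactant. Post: 1–2-leaf plants (2–10 cm), sprayed to runoff. Greenhouse ~10 d; visual injury vs untreated, 0–100 scale.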

[3] = system: velvetleaf; experiment: Test A pre-/postemergence herbicide test; assay type: in vivo, Abutilon theophrasti
Outline: as §3

[4] = system: bermudagrass; experiment: Test C pre-/postemergence herbicide test; assay type: in vivo, Cynodon dactylon; conditions: for Plant response rating, Bermudagrass / Plant response rating (0 = no effect, 100 = complete control), Bermudagrass: preemergence; for Bermudagrass plant response rating: Preemergence
Description: as §1, §2

[5] = system: goosegrass; experiment: Test C pre-/postemergence herbicide test; assay type: in vivo, Eleusine indica; conditions: for Plant response rating, Goosegrass / Plant response rating (0 = no effect, 100 = complete control), Goosegrass: preemergence; for Goosegrass plant response rating: Preemergence, scale 0 to 100, 0 no effect, 100 complete control
Description: as §1, §2

[6] = system: johnsongrass; experiment: Test C pre-/postemergence herbicide test; assay type: in vivo, Sorghum halepense; conditions: for Plant response rating, Johnsongrass / Plant response rating (0 = no effect, 100 = complete control), Johnsongrass: preemergence; for Johnsongrass plant response rating: Preemergence, scale 0 to 100, 0 no effect, 100 complete control
Description: as §1, §2

[7] = system: barnyardgrass; experiment: Test A pre-/postemergence herbicide test; assay type: in vivo, Echinochloa crus-galli
Outline: as §3

[8] = system: cocklebur; experiment: Test C pre-/postemergence herbicide test; assay type: in vivo, Xanthium strumarium; conditions: for Plant response rating, Cocklebur / Plant response rating (0 = no effect, 100 = complete control), Cocklebur: preemergence; for Cocklebur plant response rating: Preemergence, scale 0 to 100, 0 no effect, 100 complete control
Description: as §1, §2

[9] = system: velvetleaf; experiment: Test C pre-/postemergence herbicide test; assay type: in vivo, Abutilon theophrasti; conditions: for Plant response rating, Velvetleaf / Plant response rating (0 = no effect, 100 = complete control), Velvetleaf: preemergence; for Velvetleaf plant response rating: Preemergence, scale 0 to 100, 0 no effect, 100 complete control
Description: as §1, §2

[10] = system: corn; experiment: Test C pre-/postemergence herbicide test; assay type: in vivo, Zea mays; conditions: for Plant response rating, Corn / Plant response rating (0 = no effect, 100 = complete control), Corn: preemergence; for Corn plant response rating: Preemergence, scale 0 to 100, 0 no effect, 100 complete control
Description: as §1, §2

[11] = 125 g ai/ha, scale 0 (no effect) to 100 (complete control), visual, 12 to 14 days
[12] = Postemergence, 500 g ai/ha, 0 to 100 scale, 0 no effect, 100 complete control
[13] = Postemergence, 2000 g ai/ha, 0 to 100 scale, 0 no effect, 100 complete control
[14] = Preemergence, 2000 g ai/ha, visual rating, 0 to 100 scale (0 no effect, 100 complete control)
[15] = preemergence, 500 g ai/ha, visual injury, 0 to 100 scale (0 no effect, 100 complete control)
[16] = 62 g ai/ha, scale 0 to 100, 0 no effect, 100 complete control
[17] = 500 g ai/ha, scale 0 to 100, 0 no effect, 100 complete control
[18] = 250 g ai/ha, scale 0 to 100 (0 no effect, 100 complete control), visual, 12 to 14 days
[19] = 500 g ai/ha, scale 0 to 100 (0 no effect, 100 complete control), visual, 12 to 14 days

C=CCNC(=O)c1cccc(NC(=O)c2sc(C(C)(C)C)nc2C)c1 [Compound 202]
Plant response rating, Soybean ([1]; 62 g ai/ha, scale 0 to 100): 0 | Plant response rating, Soybean [1, 11]: 0 | Plant response rating, Soybean ([1]; 250 g ai/ha, scale 0-100): 0 | Soybean plant response rating ([1]; 500 g ai/ha): 30 | Morningglory plant response rating [2, 12]: 75 | Plant response rating, Morningglory [2, 13]: 75 | Morningglory plant response rating [2, 14]: 70 | Morningglory plant response rating [2, 15]: 15 | Velvetleaf plant response rating [3, 12]: 30 | Plant response rating, Velvetleaf [3, 13]: 30 | Velvetleaf plant response rating [3, 14]: 85 | Velvetleaf plant response rating [3, 15]: 35 | Plant response rating, Bermudagrass [4, 16]: 20 | Plant response rating, Bermudagrass [4, 11]: 85 | Plant response rating, Bermudagrass ([4]; 250 g ai/ha, scale 0-100): 95 | Bermudagrass plant response rating [4, 17]: 100 | Plant response rating, Goosegrass ([5]; 62 g ai/ha, scale 0 to 100): 20 | Plant response rating, Goosegrass [5, 11]: 85 | Plant response rating, Goosegrass ([5]; 250 g ai/ha, scale 0-100): 90 | Goosegrass plant response rating ([5]; 500 g ai/ha): 95 | Plant response rating, Johnsongrass ([6]; 62 g ai/ha, scale 0 to 100): 0 | Plant response rating, Johnsongrass [6, 11]: 40 | Plant response rating, Johnsongrass ([6]; 250 g ai/ha, scale 0-100): 70 | Johnsongrass plant response rating ([6]; 500 g ai/ha): 75 | Barnyardgrass plant response rating [7, 12]: 45 | Plant response rating, Barnyardgrass [7, 13]: 80 | Barnyardgrass plant response rating [7, 14]: 80 | Barnyardgrass plant response rating [7, 15]: 45 | Plant response rating, Cocklebur ([8]; 62 g ai/ha, scale 0 to 100): 0 | Plant response rating, Cocklebur [8, 11]: 0 | Plant response rating, Cocklebur ([8]; 250 g ai/ha, scale 0-100): 10 | Cocklebur plant response rating ([8]; 500 g ai/ha): 20 | Plant response rating, Velvetleaf ([9]; 62 g ai/ha, scale 0 to 100): 5 | Plant response rating, Velvetleaf [9, 11]: 10 | Plant response rating, Velvetleaf ([9]; 250 g ai/ha, scale 0-100): 100 | Velvetleaf plant response rating ([9]; 500 g ai/ha): 100 | Plant response rating, Corn ([10]; 62 g ai/ha, scale 0 to 100): 0 | Plant response rating, Corn [10, 11]: 0 | Plant response rating, Corn ([10]; 250 g ai/ha, scale 0-100): 0 | Corn plant response rating ([10]; 500 g ai/ha): 10

CCCn1nc(C(C)(C)C)cc1C(=O)Nc1cccc(C(=O)NCC)c1 [Compound 57]
Plant response rating (0 = no effect, 100 = complete control), Soybean ([1]; 62 g ai/ha): 0 | Plant response rating, Soybean [1, 11]: 0 | Plant response rating, Soybean [1, 18]: 0 | Soybean plant response rating ([1]; 500 g ai/ha): 60 | Plant response rating (0 = no effect, 100 = complete control), Bermudagrass ([4]; 62 g ai/ha): 55 | Plant response rating, Bermudagrass [4, 11]: 95 | Plant response rating, Bermudagrass [4, 18]: 95 | Bermudagrass plant response rating [4, 17]: 100 | Plant response rating (0 = no effect, 100 = complete control), Goosegrass ([5]; 62 g ai/ha): 45 | Plant response rating, Goosegrass [5, 11]: 75 | Plant response rating, Goosegrass [5, 18]: 90 | Goosegrass plant response rating ([5]; 500 g ai/ha): 90 | Plant response rating (0 = no effect, 100 = complete control), Johnsongrass ([6]; 62 g ai/ha): 20 | Plant response rating, Johnsongrass [6, 11]: 65 | Plant response rating, Johnsongrass [6, 18]: 80 | Johnsongrass plant response rating ([6]; 500 g ai/ha): 85 | Plant response rating (0 = no effect, 100 = complete control), Cocklebur ([8]; 62 g ai/ha): 0 | Plant response rating, Cocklebur [8, 11]: 0 | Plant response rating, Cocklebur [8, 18]: 0 | Cocklebur plant response rating ([8]; 500 g ai/ha): 0 | Plant response rating (0 = no effect, 100 = complete control), Velvetleaf ([9]; 62 g ai/ha): 0 | Plant response rating, Velvetleaf [9, 11]: 0 | Plant response rating, Velvetleaf [9, 18]: 100 | Velvetleaf plant response rating ([9]; 500 g ai/ha): 100 | Plant response rating (0 = no effect, 100 = complete control), Corn ([10]; 62 g ai/ha): 0 | Plant response rating, Corn [10, 11]: 0 | Plant response rating, Corn [10, 18]: 0 | Corn plant response rating ([10]; 500 g ai/ha): 0

CCN(CC)C(=O)c1cccc(NC(=O)c2nn(C(C)(C)C)nc2C)c1 [Compound 418]
Plant response rating, Soybean ([1]; 62 g ai/ha, scale 0 to 100): 0 | Plant response rating (0 = no effect, 100 = complete control), Soybean ([1]; 125 g ai/ha): 20 | Plant response rating, Soybean [1, 19]: 90 | Plant response rating, Bermudagrass [4, 16]: 100 | Plant response rating (0 = no effect, 100 = complete control), Bermudagrass ([4]; 125 g ai/ha): 100 | Plant response rating, Bermudagrass ([4]; 250 g ai/ha, scale 0-100): 100 | Plant response rating, Bermudagrass [4, 19]: 100 | Plant response rating, Goosegrass ([5]; 62 g ai/ha, scale 0 to 100): 55 | Plant response rating (0 = no effect, 100 = complete control), Goosegrass ([5]; 125 g ai/ha): 100 | Plant response rating, Goosegrass ([5]; 250 g ai/ha, scale 0-100): 100 | Plant response rating, Goosegrass [5, 19]: 100 | Plant response rating, Johnsongrass ([6]; 62 g ai/ha, scale 0 to 100): 95 | Plant response rating (0 = no effect, 100 = complete control), Johnsongrass ([6]; 125 g ai/ha): 95 | Plant response rating, Johnsongrass ([6]; 250 g ai/ha, scale 0-100): 95 | Plant response rating, Johnsongrass [6, 19]: 95 | Plant response rating, Cocklebur ([8]; 62 g ai/ha, scale 0 to 100): 0 | Plant response rating (0 = no effect, 100 = complete control), Cocklebur ([8]; 125 g ai/ha): 0 | Plant response rating, Cocklebur ([8]; 250 g ai/ha, scale 0-100): 30 | Plant response rating, Cocklebur [8, 19]: 35 | Plant response rating, Velvetleaf ([9]; 62 g ai/ha, scale 0 to 100): 90 | Plant response rating (0 = no effect, 100 = complete control), Velvetleaf ([9]; 125 g ai/ha): 95 | Plant response rating, Velvetleaf [9, 19]: 100 | Plant response rating, Corn ([10]; 62 g ai/ha, scale 0 to 100): 0 | Plant response rating (0 = no effect, 100 = complete control), Corn ([10]; 125 g ai/ha): 10 | Plant response rating, Corn ([10]; 250 g ai/ha, scale 0-100): 40 | Plant response rating, Corn [10, 19]: 80
